Test results as given in ChEMBL document CHEMBL1201862, “PubChem BioAssay data set” (2004).
Where “and” joins values, the source holds several entries; their conditions need not be identical. Equal entries are not always repeated.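 96-well plates; 48 h exposure; 5 concentrations. Endpoints by linear interpolation between flanking doses. Not reached: highest tested concentration assigned. The concentration for 50% growth inhibition is given as GI50.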 Calls of active or inactive are those of the source. No stated cut-off is given here; in the data, active = GI50 up to about 1.1 µM and inactive = higher.

Tests used:
Experiment in all cases: NCI anticancer screen, dose series, 48 h
NCI-H23 = tested on: NCI-H23
OVCAR-3 = tested on: OVCAR-3
SK-OV-3 = tested on: SK-OV-3
SK-MEL-5 = tested on: SK-MEL-5
NCI-H226 = tested on: NCI-H226
SF-268 = tested on: SF-268
SN12C = tested on: SN12C
LOX IMVI = tested on: LOX IMVI
Malme-3M = tested on: Malme-3M
M14 = tested on: M14
TK-10 = tested on: TK-10
IGROV-1 = tested on: IGROV-1
K562 = tested on: K562
NCI-H460 = tested on: NCI-H460
RXF 393 = tested on: RXF 393
KM12 = tested on: KM12
U-251 = tested on: U-251
SF-295 = tested on: SF-295
SW-620 = tested on: SW-620
MCF7 = tested on: MCF7

SMILES | GI50 (NCI-H23) | GI50 (OVCAR-3) | GI50 (SK-OV-3) | GI50 (SK-MEL-5) | GI50 (NCI-H226) | GI50 (SF-268) | GI50 (SN12C) | GI50 (LOX IMVI) | GI50 (Malme-3M) | GI50 (M14) | GI50 (TK-10) | GI50 (IGROV-1) | GI50 (K562) | GI50 (NCI-H460) | GI50 (RXF 393) | GI50 (KM12) | GI50 (U-251) | GI50 (SF-295) | GI50 (SW-620) | GI50 (MCF7)
CN(C)C(c1ccccc1)C1COC2Cc3ccccc3C1O2 (stereo not given) | > 100 µM (inactive) | 47.1 µM (inactive) and 64 µM (inactive) | > 100 µM (inactive) | > 100 µM (inactive) | 72.9 µM (inactive) | > 100 µM (inactive) | > 100 µM (inactive) | 62.2 µM (inactive) and 64.4 µM (inactive) | > 100 µM (inactive) and 60.7 µM (inactive) | > 100 µM (inactive) | > 100 µM (inactive) | > 100 µM (inactive) | 66.2 µM (inactive) and 38.7 µM (inactive) | > 100 µM (inactive) | > 100 µM (inactive) | > 100 µM (inactive) | > 100 µM (inactive) | > 100 µM (inactive) | – | –
CCOC(=O)c1cccnc1C(OC(C)=O)OC(C)=O | > 100 µM (inactive) | > 100 µM (inactive) | > 100 µM (inactive) | > 100 µM (inactive) | > 100 µM (inactive) | > 100 µM (inactive) | > 100 µM (inactive) | 70 µM (inactive) | > 100 µM (inactive) | > 100 µM (inactive) | > 100 µM (inactive) | > 100 µM (inactive) | > 100 µM (inactive) | > 100 µM (inactive) | > 100 µM (inactive) | > 100 µM (inactive) | > 100 µM (inactive) | 83.4 µM (inactive) | > 100 µM (inactive) | –
CCCOP1(=O)C=C(O)C(Cl)=C(C)C1 (stereo not given) | > 100 µM (inactive) | > 100 µM (inactive) | > 100 µM (inactive) | > 100 µM (inactive) | > 100 µM (inactive) | > 100 µM (inactive) | > 100 µM (inactive) | > 100 µM (inactive) | > 100 µM (inactive) | > 100 µM (inactive) | > 100 µM (inactive) | > 100 µM (inactive) | > 100 µM (inactive) | > 100 µM (inactive) | > 100 µM (inactive) | 41.2 µM (inactive) | > 100 µM (inactive) | > 100 µM (inactive) | > 100 µM (inactive) | –
COC(=O)c1ccccc1/C=C1\Cc2ccc3c(c2C1=O)CCCC3 | > 100 µM (inactive) | > 100 µM (inactive) | > 100 µM (inactive) | – | > 100 µM (inactive) | > 100 µM (inactive) | > 100 µM (inactive) | > 100 µM (inactive) | > 100 µM (inactive) | > 100 µM (inactive) | > 100 µM (inactive) | > 100 µM (inactive) | > 100 µM (inactive) | > 100 µM (inactive) | – | > 100 µM (inactive) | > 100 µM (inactive) | > 100 µM (inactive) | > 100 µM (inactive) | > 100 µM (inactive)
O=C1CCC(=O)C(C(=O)CCC(=O)Nc2cccc(Cl)c2)C1 (stereo not given) | > 100 µM (inactive) | > 100 µM (inactive) | > 100 µM (inactive) | > 100 µM (inactive) | > 100 µM (inactive) | – | > 100 µM (inactive) | > 100 µM (inactive) | > 100 µM (inactive) | > 100 µM (inactive) | > 100 µM (inactive) | > 100 µM (inactive) | > 100 µM (inactive) | > 100 µM (inactive) | > 100 µM (inactive) | > 100 µM (inactive) | > 100 µM (inactive) | > 100 µM (inactive) | > 100 µM (inactive) | –
COc1ccc(/C=N/n2c(C)n[nH]c2=O)c(OC)c1 | > 100 µM (inactive) | > 100 µM (inactive) | > 100 µM (inactive) | – | > 100 µM (inactive) | > 100 µM (inactive) | > 100 µM (inactive) | – | > 100 µM (inactive) | > 100 µM (inactive) | – | – | > 100 µM (inactive) | > 100 µM (inactive) | – | > 100 µM (inactive) | > 100 µM (inactive) | > 100 µM (inactive) | > 100 µM (inactive) | > 100 µM (inactive)
Cc1cc(OP2(=O)NCc3ccncc3O2)ccc1Cl (stereo not given) | > 100 µM (inactive) | > 100 µM (inactive) | – | > 100 µM (inactive) | > 100 µM (inactive) | – | > 100 µM (inactive) | > 100 µM (inactive) | – | > 100 µM (inactive) | – | > 100 µM (inactive) | > 100 µM (inactive) | > 100 µM (inactive) | > 100 µM (inactive) | > 100 µM (inactive) | > 100 µM (inactive) | > 100 µM (inactive) | > 100 µM (inactive) | > 100 µM (inactive)
COC(=O)C(CC(=O)Nc1ccc(Cl)c(Cl)c1)C(=O)C(=O)NC1C2CC3CC(C2)CC1C3 (stereo not given) | > 100 µM (inactive) | > 100 µM (inactive) | > 100 µM (inactive) | > 100 µM (inactive) | > 100 µM (inactive) | > 100 µM (inactive) | > 100 µM (inactive) | > 100 µM (inactive) | > 100 µM (inactive) | > 100 µM (inactive) | > 100 µM (inactive) | > 100 µM (inactive) | > 100 µM (inactive) | > 100 µM (inactive) | > 100 µM (inactive) | > 100 µM (inactive) | > 100 µM (inactive) | > 100 µM (inactive) | > 100 µM (inactive) | –
CNc1nc(C(N)=O)c(N)s1 | > 100 µM (inactive) | > 100 µM (inactive) | > 100 µM (inactive) | 84.9 µM (inactive) | > 100 µM (inactive) | > 100 µM (inactive) | > 100 µM (inactive) | > 100 µM (inactive) | > 100 µM (inactive) | > 100 µM (inactive) | > 100 µM (inactive) | > 100 µM (inactive) | > 100 µM (inactive) | > 100 µM (inactive) | > 100 µM (inactive) | > 100 µM (inactive) | > 100 µM (inactive) | > 100 µM (inactive) | > 100 µM (inactive) | –
O=CCOCc1cc2c(cc1Br)OCO2 | 11.8 µM (inactive) | 17.3 µM (inactive) | > 100 µM (inactive) | 19.3 µM (inactive) | – | 18.6 µM (inactive) | 34.5 µM (inactive) | 19.6 µM (inactive) | – | 20.3 µM (inactive) | 52.1 µM (inactive) | 32.8 µM (inactive) | 44.6 µM (inactive) | > 100 µM (inactive) | 37 µM (inactive) | 33 µM (inactive) | 31 µM (inactive) | > 100 µM (inactive) | 20.9 µM (inactive) | 20.3 µM (inactive)
COC(=O)/C(=C/c1ccc(OC)cc1)C(C(=O)O)=C(C)C | > 100 µM (inactive) | > 100 µM (inactive) | > 100 µM (inactive) | > 100 µM (inactive) | > 100 µM (inactive) | > 100 µM (inactive) | > 100 µM (inactive) | > 100 µM (inactive) | > 100 µM (inactive) | > 100 µM (inactive) | > 100 µM (inactive) | > 100 µM (inactive) | > 100 µM (inactive) | > 100 µM (inactive) | > 100 µM (inactive) | > 100 µM (inactive) | > 100 µM (inactive) | > 100 µM (inactive) | > 100 µM (inactive) | –
CC12CCC(C(Nc3cc(C(F)(F)F)cc(C(F)(F)F)c3)C1=O)C2(C)C (stereo not given) | > 100 µM (inactive) | > 100 µM (inactive) | > 100 µM (inactive) | > 100 µM (inactive) | > 100 µM (inactive) | > 100 µM (inactive) | – | > 100 µM (inactive) | > 100 µM (inactive) | > 100 µM (inactive) | > 100 µM (inactive) | > 100 µM (inactive) | > 100 µM (inactive) | > 100 µM (inactive) | – | > 100 µM (inactive) | > 100 µM (inactive) | > 100 µM (inactive) | > 100 µM (inactive) | > 100 µM (inactive)
O=[N+]([O-])c1ccc2[nH]nc(OCc3ccccn3)c2c1 | > 100 µM (inactive) | 61 µM (inactive) | 73.8 µM (inactive) | > 100 µM (inactive) | > 100 µM (inactive) | > 100 µM (inactive) | > 100 µM (inactive) | > 100 µM (inactive) | > 100 µM (inactive) | > 100 µM (inactive) | 47.2 µM (inactive) | > 100 µM (inactive) | > 100 µM (inactive) | > 100 µM (inactive) | > 100 µM (inactive) | > 100 µM (inactive) | 99.8 µM (inactive) | 38.8 µM (inactive) | > 100 µM (inactive) | –
NC(C(=O)O)c1ccc(C(=O)O)cc1 (stereo not given) | > 100 µM (inactive) | > 100 µM (inactive) | > 100 µM (inactive) | > 100 µM (inactive) | > 100 µM (inactive) | > 100 µM (inactive) | > 100 µM (inactive) | > 100 µM (inactive) | > 100 µM (inactive) | > 100 µM (inactive) | > 100 µM (inactive) | > 100 µM (inactive) | > 100 µM (inactive) | > 100 µM (inactive) | > 100 µM (inactive) | > 100 µM (inactive) | > 100 µM (inactive) | > 100 µM (inactive) | > 100 µM (inactive) | –
COc1ccc(C(=O)c2cc(OC)c(OC)c(OC)c2)cc1OC | 10.2 µM (inactive) | 3.71 µM (inactive) | – | 4.44 µM (inactive) | – | 7.8 µM (inactive) | 7.21 µM (inactive) | 7.83 µM (inactive) | 5.93 µM (inactive) | 8.83 µM (inactive) | > 100 µM (inactive) | 9.68 µM (inactive) | 2.28 µM (inactive) | 3.34 µM (inactive) | 2.36 µM (inactive) | 0.815 µM (active) | 3.94 µM (inactive) | 1.82 µM (inactive) | 3.52 µM (inactive) | 2.24 µM (inactive)
Cc1cnc2nc(-c3ccc4ccccc4c3)cc(O)c2c1 | 0.434 µM (active) | – | 0.578 µM (active) | – | 0.504 µM (active) | 2.81 µM (inactive) | 0.966 µM (active) | 0.728 µM (active) | – | 0.547 µM (active) | 2.4 µM (inactive) | 0.843 µM (active) | 0.251 µM (active) | – | – | 0.444 µM (active) | – | – | 0.359 µM (active) | 0.561 µM (active)
